Experimental data as given in PubChem BioAssay AID1963422 (Molecular Pharmacology Branch, DTP, NCI, 2024).

Tested on: 463943-066-T-J2-PDC complex spheroid growth
Test: Anticancer human tumor 463943-066-T-J2-PDC patient-derived colon adenocarcinoma cell line growth inhibition [Asc]
Details: for IC50: curve of first compound; for viability, T/C: stronger effect = lower value
How it was run: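 Complex solid-tumor spheroids incorporating human endothelial and mesenchymal stem cells received single agents or combinations over half-log dilution ranges anchored to clinical Cmax.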
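Note: compound exposure lasted 7 days.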
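Throughout, for viability, T/C: 100% = DMSO vehicle control wells.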

How did the IC50 (second compound 0.00949 µM) turn out when `C=C(F)C(=O)N1CCN(c2nc(OCC3CCCN3C)nc3c2CCN(c2cccc4cccc(Cl)c24)C3)CC1CC#N` (configuration not stated) + CCN1C(C(=O)NC23CCC(C(=O)O)(CC2)CC3)C(c2cccc(Cl)c2F)C2(C(=O)Nc3cc(Cl)ccc32)C12CCCCC2 was run?
The IC50 was 6.05 µM.

And the IC50 (second compound 0.03 µM)?
The IC50 was 6.36 µM.

And the IC50 (second compound 0.0949 µM)?
Its IC50 is 6.24 µM.

What about the IC50 (second compound 0.3 µM) of the same compound?
The IC50 was 6.01 µM.

What about the IC50 (second compound 0.949 µM) of the same compound?
Its IC50 is 6.26 µM.

What about the IC50 (second compound 3 µM) of the same compound?
The IC50 was 5.8 µM.

And the viability, T/C (second compound 0.00949 µM, first compound 0.0316 µM)?
The viability, T/C was 97.4%.

What about the viability, T/C (second compound 0.00949 µM, first compound 0.1 µM) of the same compound?
Its viability, T/C is 92.9%.

And the viability, T/C (second compound 0.00949 µM, first compound 0.316 µM)?
The viability, T/C was 103%.

What about the viability, T/C (second compound 0.00949 µM, first compound 1 µM) of the same compound?
The viability, T/C was 104%.

What about the viability, T/C (second compound 0.00949 µM, first compound 3.16 µM) of the same compound?
Its viability, T/C is 91.9%.

What about the viability, T/C (second compound 0.00949 µM, first compound 10 µM) of the same compound?
Its viability, T/C is 17.2%.

What about the viability, T/C (second compound 0.03 µM, first compound 0.0316 µM) of the same compound?
The viability, T/C was 93.4%.

What about the viability, T/C (second compound 0.03 µM, first compound 0.1 µM) of the same compound?
Its viability, T/C is 93.9%.

What about the viability, T/C (second compound 0.03 µM, first compound 0.316 µM) of the same compound?
The viability, T/C was 93.1%.

And the viability, T/C (second compound 0.03 µM, first compound 1 µM)?
Its viability, T/C is 101%.

And the viability, T/C (second compound 0.03 µM, first compound 3.16 µM)?
The viability, T/C was 97.3%.

What about the viability, T/C (second compound 0.03 µM, first compound 10 µM) of the same compound?
Its viability, T/C is 20.3%.

What about the viability, T/C (second compound 0.0949 µM, first compound 0.0316 µM) of the same compound?
Its viability, T/C is 91.7%.

What about the viability, T/C (second compound 0.0949 µM, first compound 0.1 µM) of the same compound?
Its viability, T/C is 87.3%.

What about the viability, T/C (second compound 0.0949 µM, first compound 0.316 µM) of the same compound?
The viability, T/C was 88.3%.

And the viability, T/C (second compound 0.0949 µM, first compound 1 µM)?
The viability, T/C was 97.8%.

What about the viability, T/C (second compound 0.0949 µM, first compound 3.16 µM) of the same compound?
The viability, T/C was 87.3%.

And the viability, T/C (second compound 0.0949 µM, first compound 10 µM)?
The viability, T/C was 23.9%.

What about the viability, T/C (second compound 0.3 µM, first compound 0.0316 µM) of the same compound?
The viability, T/C was 82%.

And the viability, T/C (second compound 0.3 µM, first compound 0.1 µM)?
Its viability, T/C is 85.4%.

What about the viability, T/C (second compound 0.3 µM, first compound 0.316 µM) of the same compound?
The viability, T/C was 83.6%.

And the viability, T/C (second compound 0.3 µM, first compound 1 µM)?
The viability, T/C was 90.5%.

What about the viability, T/C (second compound 0.3 µM, first compound 3.16 µM) of the same compound?
Its viability, T/C is 79.1%.

What about the viability, T/C (second compound 0.3 µM, first compound 10 µM) of the same compound?
The viability, T/C was 26.3%.

And the viability, T/C (second compound 0.949 µM, first compound 0.0316 µM)?
The viability, T/C was 71.9%.

What about the viability, T/C (second compound 0.949 µM, first compound 0.1 µM) of the same compound?
Its viability, T/C is 81%.

What about the viability, T/C (second compound 0.949 µM, first compound 0.316 µM) of the same compound?
The viability, T/C was 76%.

What about the viability, T/C (second compound 0.949 µM, first compound 1 µM) of the same compound?
The viability, T/C was 83.6%.

What about the viability, T/C (second compound 0.949 µM, first compound 3.16 µM) of the same compound?
Its viability, T/C is 78.1%.

And the viability, T/C (second compound 0.949 µM, first compound 10 µM)?
Its viability, T/C is 30.8%.

What about the viability, T/C (second compound 3 µM, first compound 0.0316 µM) of the same compound?
The viability, T/C was 70.8%.

And the viability, T/C (second compound 3 µM, first compound 0.1 µM)?
The viability, T/C was 71.5%.

And the viability, T/C (second compound 3 µM, first compound 0.316 µM)?
The viability, T/C was 74%.

What about the viability, T/C (second compound 3 µM, first compound 1 µM) of the same compound?
Its viability, T/C is 78.9%.

What about the viability, T/C (second compound 3 µM, first compound 3.16 µM) of the same compound?
The viability, T/C was 77.5%.

What about the viability, T/C (second compound 3 µM, first compound 10 µM) of the same compound?
The viability, T/C was 28%.
